We go through one compound from patent US10768179B2, “Method for predicting responsiveness to cancer treatment using p300-inhibiting compound” (National Cancer Center, priority 2014, dated 2020).

The subject of experiment [1] is CBP-mutated lung cancer cells and lymphoma cells. In words: Sensitivity (survival rate, IC50) of cancer cell lines to p300 inhibitor C646. It counts as cell-based. The method, then:
A549, H1299, H157, SQ5, H1703, LK2, H520 (NSCLC), RL, Loucy, RC-K8, U2932, Ramos, Farage, SUP-T1, WSU-NHL, VAL, SUDHL5, Jurkat, TE8, and TE10 were separately cultured in RPMI-1640 or DMEM supplemented with 10% fetal bovine serum (FBS). MRC-5 cells (normal fibroblasts), HEK293T cells (immortalized renal epithelial cells), and RPE-1 cells (immortalized retinal epithelial cells) were separately cultured in DMEM supplemented with 10% FBS.
The viability was determined by examining intracellular ATP level using CellTiter-Glo Luminescent Cell Viability Assay kit (Promega Corp.). Each cancer cell line was transfected with siRNA (50 nM) using Lipofectamine RNAiMAX (Invitrogen Corp.). Two days later, the cells were trypsinized, counted, and reseeded in specified numbers in 96-well plate. In order to measure the cell viability, CellTiter-Glo Luminescent Cell Viability Assay kit (Promega Corp.) was added to the cells, and […] was measured using Envision (PerkinElmer, Inc.).

Another experiment relates to CBP-mutated cancer cells. In words: Apoptosis analysis by Annexin V/PI staining after C646 treatment. It counts as cell-based. The note with it: 48 hours and 96 hours after C646 treatment; FIG. 5B. Here is the method:
In order to detect apoptotic cells by flow cytometry, Annexin V-FITC/PI apoptosis detection kit (F. Hoffmann-La Roche, Ltd.) was used according to the manufacturer's instruction manual. Briefly, the cell pellet was suspended in a 1× binding buffer and incubated with Annexin V-FITC and PI for 20 minutes in the dark. Subsequently, the fluorescence of the cells was analyzed by flow cytometry.

For `CC1=NN(c2ccc(C(=O)O)cc2)C(=O)/C1=C\c1ccc(-c2cc(C)c(C)cc2[N+](=O)[O-])o1` [C646], in experiment [1] (CBP-mutated vs CBP-proficient cancer cells, Student's t test, p<0.01, FIGS. 3B and 3D), the “IC50 value for C646” value is listed as “low tendency relative to CBP-proficient cancer cells”. The “sensitivity to C646 (survival rates)” value in experiment [1] (CBP-mutated vs CBP-proficient lung cancer and lymphoma cell lines, FIGS. 3A and 3C) is on record as “higher sensitivity of the CBP-mutated cancer cells to C646 than that of the CBP-proficient cancer cells”. Besides, the “induction of apoptosis (Annexin V stainability)” value with CBP-mutated cancer cells is listed as “specifically suppresses the growth of CBP-mutated cancer cells by inducing apoptosis”.
